Results: the supplement of paper PMC7806825
One block for each compound: values may come before it.

Tested on: McpC ligand-binding domain (Salmonella Typhimurium SL1344)
Test: protein melting temperature (Tm) in presence of compound (degrees C); higher = more thermal stabilisation (possible ligand binding)
Conditions: compound stock concentration: 10-20 mM, 2 uL in 10 uL reaction

protein melting temperature (Biolog plate: PM02A): 44.4
SMILES: OC[C@@H]1OC(O)[C@@H](O)[C@H](O)[C@H]1O (stereo partly drawn) [L-Glucose]

protein melting temperature (Biolog plate: PM01): 44.2 | protein melting temperature (Biolog plate: PM03B): 44.8 | protein melting temperature (Biolog plate: PM05): 44.2
SMILES: N[C@@H](CCC(=O)O)C(=O)O [L-Glutamic acid]

protein melting temperature (Biolog plate: PM01): 44 | protein melting temperature (Biolog plate: PM03B): 45.1 | protein melting temperature (Biolog plate: PM05): 44.9
SMILES: NC(=O)CC[C@H](N)C(=O)O [L-Glutamine]

protein melting temperature (Biolog plate: PM02A): 44.7 | protein melting temperature (Biolog plate: PM03B): 44.8 | protein melting temperature (Biolog plate: PM05): 44.6
SMILES: N[C@@H](Cc1c[nH]cn1)C(=O)O [L-Histidine]

SMILES: N[C@H]1CCOC1=O [L-Homoserine Lactone]
protein melting temperature (Biolog plate: PM05): 44.5

protein melting temperature (Biolog plate: PM02A): 44.7 | protein melting temperature (Biolog plate: PM03B): 44.8
SMILES: N[C@@H](CCO)C(=O)O [L-Homoserine]

protein melting temperature (Biolog plate: PM02A): 44.3 | protein melting temperature (Biolog plate: PM03B): 44.8 | protein melting temperature (Biolog plate: PM05): 44.7
SMILES: CC[C@H](C)[C@H](N)C(=O)O [L-Isoleucine]

protein melting temperature (Biolog plate: PM02A): 44.3 | protein melting temperature (Biolog plate: PM03B): 44.8 | protein melting temperature (Biolog plate: PM05): 44.6
SMILES: CC(C)C[C@H](N)C(=O)O [L-Leucine]

protein melting temperature (Biolog plate: PM01): 44.7
SMILES: O=C[C@H](O)[C@H](O)[C@@H](O)CO [L-Lyxose]

protein melting temperature (Biolog plate: PM01): 44.3
SMILES: O=C(O)C[C@H](O)C(=O)O [L-Malic acid]

protein melting temperature (Biolog plate: PM04A): 43.9
SMILES: CS(=O)(=O)CC[C@H](N)C(=O)O [L-Methionine Sulfone]

protein melting temperature (Biolog plate: PM04A): 43.6
SMILES: C[S+]([O-])CC[C@H](N)C(=O)O (stereo partly drawn) [L-Methionine Sulfoxide]

protein melting temperature (Biolog plate: PM02A): 43.5 | protein melting temperature (Biolog plate: PM03B): 44.7 | protein melting temperature (Biolog plate: PM04A): 43.9 | protein melting temperature (Biolog plate: PM05): 44.4
SMILES: CSCC[C@H](N)C(=O)O [L-Methionine]

protein melting temperature (Biolog plate: PM02A): 44.4 | protein melting temperature (Biolog plate: PM03B): 44.4 | protein melting temperature (Biolog plate: PM05): 44.7
SMILES: NCCC[C@H](N)C(=O)O [L-Ornithine]

protein melting temperature (Biolog plate: PM02A): 44.5 | protein melting temperature (Biolog plate: PM03B): 44.8 | protein melting temperature (Biolog plate: PM05): 43.8
SMILES: N[C@@H](Cc1ccccc1)C(=O)O [L-Phenylalanine]

protein melting temperature (Biolog plate: PM01): 44.3 | protein melting temperature (Biolog plate: PM03B): 45.1 | protein melting temperature (Biolog plate: PM05): 44.2
SMILES: O=C(O)[C@@H]1CCCN1 [L-Proline]

protein melting temperature (Biolog plate: PM01): 44 | protein melting temperature (Biolog plate: PM03B): 44.8 | protein melting temperature (Biolog plate: PM05): 43.8
SMILES: C[C@@H](O)[C@H](N)C(=O)O [L-Threonine]

protein melting temperature (Biolog plate: PM03B): 44.4 | protein melting temperature (Biolog plate: PM05): 44
SMILES: N[C@@H](Cc1c[nH]c2ccccc12)C(=O)O [L-Tryptophan]

protein melting temperature (Biolog plate: PM03B): 44.8 | protein melting temperature (Biolog plate: PM05): 43.9
SMILES: N[C@@H](Cc1ccc(O)cc1)C(=O)O [L-Tyrosine]

protein melting temperature (Biolog plate: PM02A): 44.5 | protein melting temperature (Biolog plate: PM03B): 45 | protein melting temperature (Biolog plate: PM05): 43.5
SMILES: CC(C)[C@H](N)C(=O)O [L-Valine]

protein melting temperature (Biolog plate: PM02A): 44.5
SMILES: OC[C@@H](O)[C@@H](O[C@H]1O[C@H](CO)[C@@H](O)[C@H](O)[C@H]1O)[C@H](O)[C@@H](O)CO [Maltitol]

protein melting temperature (Biolog plate: PM01): 44
SMILES: OC[C@H]1O[C@H](O[C@H]2[C@H](O)[C@@H](O)[C@@H](O[C@H]3[C@H](O)[C@@H](O)[C@@H](O)O[C@@H]3CO)O[C@@H]2CO)[C@H](O)[C@@H](O)[C@@H]1O [Maltotriose]

protein melting temperature (Biolog plate: PM02A): 44.8
SMILES: OC[C@H]1O[C@@H](O[C@H]2[C@H](O)[C@@H](O)[C@H](O[C@H]3[C@H](O)[C@H](O)[C@H](O[C@@H]4[C@H](O)[C@H](O)[C@H](O)O[C@@H]4CO)O[C@@H]3CO)O[C@@H]2CO)[C@@H](O)[C@@H](O)[C@@H]1O [Mannan]

protein melting temperature (Biolog plate: PM02A): 44.7
SMILES: O=C(O)[C@H](O)[C@@H](O)[C@H](O)[C@H](O)CO[C@H]1O[C@H](CO)[C@H](O)[C@H](O)[C@H]1O [Melibionic acid]

protein melting temperature (Biolog plate: PM05): 42.6
SMILES: CC1=CC(=O)c2ccccc2C1=O [Menadione]

protein melting temperature (Biolog plate: PM03B): 44.9
SMILES: CSCC[C@H](N)C(=O)N[C@@H](C)C(=O)O [Met-Ala]

protein melting temperature (Biolog plate: PM04A): 44.4
SMILES: CS(=O)(=O)O [Methane Sulfonic acid]

SMILES: CN [Methylamine]
protein melting temperature (Biolog plate: PM03B): 45.8

protein melting temperature (Biolog plate: PM04A): 44
SMILES: O=P(O)(O)CP(=O)(O)O [Methylene Diphosphonic acid]

protein melting temperature (Biolog plate: PM01): 44.9
SMILES: COC(=O)C(C)=O [Methylpyruvate]

protein melting temperature (Biolog plate: PM01): 45
SMILES: COC(=O)CCC(=O)O [Mono-Methylsuccinate]

protein melting temperature (Biolog plate: PM01): 43.7
SMILES: O=C(O)[C@@H](O)[C@H](O)[C@H](O)[C@@H](O)C(=O)O [Mucic acid]

protein melting temperature (Biolog plate: PM02A): 44.6 | protein melting temperature (Biolog plate: PM03B): 44.6
SMILES: CC(=O)N[C@H]1C(O)O[C@H](CO)[C@H](O)[C@@H]1O (stereo partly drawn) [N-Acetyl-D-Galactosamine]

protein melting temperature (Biolog plate: PM02A): 44.1
SMILES: CC(=O)N[C@@H](CO)[C@@H](O)[C@H](O)[C@H](O)CO [N-Acetyl-D-Glucosaminitol]

protein melting temperature (Biolog plate: PM01): 44.8 | protein melting temperature (Biolog plate: PM03B): 45.5
SMILES: CC(=O)N[C@@H]1C(O)O[C@H](CO)[C@@H](O)[C@@H]1O (stereo partly drawn) [N-Acetyl-D-Mannosamine]

protein melting temperature (Biolog plate: PM04A): 43.7
SMILES: CC(=O)N[C@@H](CS)C(=O)O [N-Acetyl-L-Cysteine]

protein melting temperature (Biolog plate: PM02A): 44.4
SMILES: CC(=O)N[C@H]1[C@H]([C@H](O)[C@H](O)CO)OC(O)(C(=O)O)C[C@@H]1O (some centres not stated) [N-Acetyl-Neuraminic acid]

protein melting temperature (Biolog plate: PM03B): 44.9
SMILES: CCCCCN [N-Amylamine]

protein melting temperature (Biolog plate: PM03B): 45.3
SMILES: CCCCN [N-Butylamine]

protein melting temperature (Biolog plate: PM03B): 44.9
SMILES: O=C(O)CC[C@@H](C(=O)O)N1C(=O)c2ccccc2C1=O [N-Phthaloyl-L-Glutamic acid]

protein melting temperature (Biolog plate: PM05): 43.7
SMILES: NC(=O)c1cccnc1 [Nicotinamide]

SMILES: O=[N+]([O-])O [Nitrate]
protein melting temperature (Biolog plate: PM03B): 46

protein melting temperature (Biolog plate: PM03B): 46
SMILES: O=NO [Nitrite]

protein melting temperature (Biolog plate: PM04A): 43.9
SMILES: N[C@H](COP(=O)(O)O)C(=O)O [O-Phospho-D-Serine]

protein melting temperature (Biolog plate: PM04A): 43.7
SMILES: N[C@H](Cc1ccc(OP(=O)(O)O)cc1)C(=O)O [O-Phospho-D-Tyrosine]

protein melting temperature (Biolog plate: PM04A): 43.9
SMILES: N[C@@H](COP(=O)(O)O)C(=O)O [O-Phospho-L-Serine]

protein melting temperature (Biolog plate: PM04A): 44
SMILES: C[C@@H](OP(=O)(O)O)[C@H](N)C(=O)O [O-Phospho-L-Threonine]

protein melting temperature (Biolog plate: PM04A): 43.7
SMILES: N[C@@H](Cc1ccc(OP(=O)(O)O)cc1)C(=O)O [O-Phospho-L-Tyrosine]

protein melting temperature (Biolog plate: PM04A): 43.9
SMILES: NCCOP(=O)(O)O [O-Phosphoryl-Ethanolamine]

protein melting temperature (Biolog plate: PM05): 43
SMILES: O=C(O)c1cc(=O)[nH]c(=O)[nH]1 [Orotic acid]

protein melting temperature (Biolog plate: PM05): 43.8
SMILES: O=C(O)CC(=O)C(=O)O [Oxaloacetic acid]

protein melting temperature (Biolog plate: PM02A): 44
SMILES: O=C(CO)[C@@H](O)[C@H](O)[C@H](O)CO[C@H]1O[C@H](CO)[C@@H](O)[C@H](O)[C@H]1O [Palatinose]

protein melting temperature (Biolog plate: PM03B): 44
SMILES: O=C1NC(=O)C(=O)N1 [Parabanic acid]

protein melting temperature (Biolog plate: PM02A): 45
SMILES: O=C(O)[C@H]1O[C@@H](O)[C@H](O)[C@@H](O)[C@H]1O [Pectin]

protein melting temperature (Biolog plate: PM04A): 43.5
SMILES: O=C(O)COP(=O)(O)O [Phospho-Glycolic acid]

SMILES: CN(CC(=O)O)C(=N)NP(=O)(O)O [Phosphocreatine]
protein melting temperature (Biolog plate: PM04A): 44.3

protein melting temperature (Biolog plate: PM04A): 43.9
SMILES: C=C(OP(=O)(O)O)C(=O)O [Phosphoenol Pyruvate]

protein melting temperature (Biolog plate: PM04A): 44
SMILES: O=C(O)CP(=O)(O)O [Phosphono Acetic acid]

protein melting temperature (Biolog plate: PM04A): 43.7
SMILES: C[N+](C)(C)CCOP(=O)(O)O [Phosphoryl Choline]

protein melting temperature (Biolog plate: PM01): 44.9
SMILES: CCC(=O)O [Propionic acid]

protein melting temperature (Biolog plate: PM02A): 43.7 | protein melting temperature (Biolog plate: PM03B): 44 | protein melting temperature (Biolog plate: PM05): 44.1
SMILES: NCCCCN [Putrescine]

protein melting temperature (Biolog plate: PM05): 43.2
SMILES: Cc1ncc(CO)c(C=O)c1O [Pyridoxal]

protein melting temperature (Biolog plate: PM05): 43.9
SMILES: Cc1ncc(CO)c(CN)c1O [Pyridoxamine]

protein melting temperature (Biolog plate: PM05): 43.8
SMILES: Cc1ncc(CO)c(CO)c1O [Pyridoxine]

protein melting temperature (Biolog plate: PM05): 43
SMILES: O=C(O)c1cc(C(=O)O)c2c(n1)C(=O)C(=O)c1cc(C(=O)O)[nH]c1-2 [Pyrrolo-Quinoline Quinone]

protein melting temperature (Biolog plate: PM01): 44.9
SMILES: CC(=O)C(=O)O [Pyruvic acid]

protein melting temperature (Biolog plate: PM02A): 44.2
SMILES: O=C(O)[C@]1(O)C[C@@H](O)[C@@H](O)[C@H](O)C1 [Quinic acid]

protein melting temperature (Biolog plate: PM05): 43.8
SMILES: O=C(O)c1cccnc1C(=O)O [Quinolinic acid]

protein melting temperature (Biolog plate: PM05): 43.6
SMILES: Cc1cc2nc3c(=O)[nH]c(=O)nc-3n(C[C@H](O)[C@H](O)[C@H](O)CO)c2cc1C [Riboflavin]

protein melting temperature (Biolog plate: PM04A): 43.7
SMILES: CSC[C@H](N)C(=O)O [S-Methyl-L-Cysteine]

protein melting temperature (Biolog plate: PM02A): 44.8
SMILES: O=C(O)CCCCCCCCC(=O)O [Sebacic acid]

protein melting temperature (Biolog plate: PM02A): 44.3
SMILES: OC[C@@]12OC[C@@H](O1)[C@@H](O)[C@@H](O)[C@@H]2O [Sedoheptulosan]

protein melting temperature (Biolog plate: PM02A): 44
SMILES: C/C=C/C=C/C(=O)O [Sorbic acid]

protein melting temperature (Biolog plate: PM05): 41.1
SMILES: NCCCCNCCCN [Spermidine]

protein melting temperature (Biolog plate: PM05): 43.8
SMILES: NCCCNCCCCNCCCN [Spermine]

protein melting temperature (Biolog plate: PM02A): 44.5
SMILES: OC[C@H]1O[C@H](OC[C@H]2O[C@H](OC[C@H]3O[C@H](O[C@]4(CO)O[C@H](CO)[C@@H](O)[C@@H]4O)[C@H](O)[C@@H](O)[C@@H]3O)[C@H](O)[C@@H](O)[C@H]2O)[C@H](O)[C@@H](O)[C@H]1O [Stachyose]

protein melting temperature (Biolog plate: PM02A): 43.6
SMILES: NC(=O)CCC(=O)O [Succinamic acid]

protein melting temperature (Biolog plate: PM01): 44.5
SMILES: O=C(O)CCC(=O)O [Succinic acid]

protein melting temperature (Biolog plate: PM04A): 44.2
SMILES: NCCS(=O)(=O)O [Taurine]

protein melting temperature (Biolog plate: PM04A): 44.2
SMILES: C[C@H](CCC(=O)NCCS(=O)(=O)O)[C@H]1CC[C@H]2[C@@H]3[C@H](O)C[C@@H]4C[C@H](O)CC[C@]4(C)[C@H]3C[C@H](O)[C@]12C [Taurocholic acid]

protein melting temperature (Biolog plate: PM04A): 44.3
SMILES: O=S1(=O)CCCC1 [Tetramethylene Sulfone]

protein melting temperature (Biolog plate: PM04A): 42.7
SMILES: O=S(=O)(O)SSS(=O)(=O)O [Tetrathionate]
